What all share (format): cell-based
Assay [1] has as its system bovine aortic endothelial cells. Briefly: cGMP production stimulated by the Alzheimer protein β/A4 in endothelial cell cultures (BAECs), radioimmunoassay. An excerpt: (§1) Action of the compounds of the formula (I) on cGMP production stimulated by the Alzheimer protein β/A4 in endothelial cell cultures
(§2) Bovine aortic endothelial cell cultures (BAECs=bovine aortic endothelial cells), […] coronary rat endothelial cell cultures (RMCECs=rat microvascular coronary endothelial cells) and human umbilical vein endothelial cell cultures (HUVECs=human umbilical vein endothelial cells)
(§3) Determination of the effect of bradykinin antagonists of the formula (I) on the production of cGMP stimulated by administration of 0.1 and 1 μmol/l of the Alzheimer protein β/A4 in endothelial cell cultures of various species and organs.
(§4) In endothelial cells, bradykinin leads to an increase in the production of cGMP, which is determined by means of a radioimmunoassay. Increase in the formation of cGMP by bradykinin is an indicator of a release of NO (nitrogen monoxide) from endothelial cells.
(§5) Stimulation of cGMP production by βA(1-40) and inhibitory effect of the bradykinin antagonist HOE 140 (10^-7 mol/l) in 3 different types of endothelial cells: […]

The subject of assay [2] is rat microvascular coronary endothelial cells. The assay can be described thus: cGMP production stimulated by the Alzheimer protein β/A4 in endothelial cell cultures (RMCECs), radioimmunoassay.
Excerpt: as §1, §2, §3, §4, §5

Assay [3] relates to human umbilical vein endothelial cells. The assay can be described thus: cGMP production stimulated by the Alzheimer protein β/A4 in endothelial cell cultures (HUVECs), radioimmunoassay.
Excerpt: as §1, §2, §3, §4, §5

Setting [4] is: simultaneous incubation with HOE 140 0.1 μmol/l.
Setting [5] is: stimulated with BK 10^-8 mol/l + HOE 140 (10^-7 mol/l).
[6] abbreviates: stimulated with βA (1-40) 10^-6 mol/l + HOE 140 (10^-7 mol/l).
Setting [7] is: stimulated with βA (1-40) 10^-7 mol/l + HOE 140 (10^-7 mol/l).

The source of these data is patent publication US6245736A, “Use of peptidic bradykinin antagonists for the treatment and prevention of Alzheimer's disease” (Aventis Pharma Deutschland GmbH, priority 1996, dated 2001).

Where no end group is shown, it is not given here.

With `N=C(N)NCCC[C@@H](N)C(=O)N[C@@H](CCCNC(=N)N)C(=O)N1CCC[C@H]1C(=O)N1C[C@H](O)C[C@H]1C(=O)NCC(=O)N[C@@H](Cc1cccs1)C(=O)N[C@@H](CO)C(=O)N1Cc2ccccc2C[C@@H]1C(=O)N1[C@H](C(=O)N[C@@H](CCCNC(=N)N)C(=O)O)C[C@@H]2CCCC[C@@H]21` [HOE 140, H-D-Arg-Arg-Pro-Hyp-Gly-Thi-Ser-D-Tic-Oic-Arg-OH], the “effect on the stimulation of the production of cGMP induced by the β/A4 protein” value in assay [1] (setting [4]), in assay [2] (setting [4]) and in assay [3] (setting [4]) was “prevents the stimulation of the production of cGMP” in each case. The cGMP production was 2.2 ± 0.2 pmol/mg of protein in assay [1] (setting [5]); 2.2 ± 0.2 pmol/mg of protein in assay [1] (setting [6]); 2.2 ± 0.28 pmol/mg of protein in assay [1] (setting [7]); 0.22 ± 0.02 pmol/mg of protein in assay [2] (setting [5]); 0.32 ± 0.05 pmol/mg of protein in assay [2] (setting [6]); 0.34 ± 0.02 pmol/mg of protein in assay [2] (setting [7]). For the same compound, the cGMP production was 3.45 ± 0.45 pmol/mg of protein in assay [3] (setting [5]), 5.3 pmol/mg of protein in assay [3] (setting [6]) and 4.0 pmol/mg of protein in assay [3] (setting [7]).
Regarding RPPGFSPFR [BK, bradykinin], the cGMP production in assay [1] (BK 10^-8 mol/l alone) is recorded as 8.8 ± 0.34 pmol/mg of protein; in assay [2] (BK 10^-8 mol/l alone) it was 1.13 ± 0.2 pmol/mg of protein; in assay [3] (BK 10^-8 mol/l alone), 11.46 ± 2 pmol/mg of protein.
As to “βA (1-40): Alzheimer protein amyloid (β/A4), used to stimulate cGMP production [reference compound]”, the cGMP production was 4.6 ± 0.13 pmol/mg of protein in assay [1] (βA (1-40) 10^-6 mol/l alone); 5.9 ± 0.23 pmol/mg of protein in assay [1] (βA (1-40) 10^-7 mol/l alone); 0.74 ± 0.09 pmol/mg of protein in assay [2] (βA (1-40) 10^-6 mol/l alone); 0.59 ± 0.07 pmol/mg of protein in assay [2] (βA (1-40) 10^-7 mol/l alone); 15.3 ± 1.9 pmol/mg of protein in assay [3] (βA (1-40) 10^-6 mol/l alone); 14.07 ± 1.6 pmol/mg of protein in assay [3] (βA (1-40) 10^-7 mol/l alone).
